Some test systems named below: SW-620 colon; OVCAR-3 ovarian; A549 NSCLC; MDA-MB-231 breast; MOLT-4 leukemia; HL-60(TB) leukemia; RPMI-8226 leukemia; A498 renal; HCT-15 colon; EKVX NSCLC; SF-539 CNS; BT-549 breast; MALME-3M melanoma; NCI-H522 lung; U251 CNS; HCC-2998 colon; UACC-257 melanoma.
Experiment in all cases: DTP human tumour cell line panel, 48 h

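These data come from cells grown in 96-well plates and exposed to compound for 48 hours at five concentrations. GI50 = concentration required for 50% inhibition of growth. The concentration for full growth arrest is given as TGI.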

The TGI is the concentration at which net growth stops. Consider `CCC(CCCC[C@@H]1CC[C@H]2CC(=O)C[C@@H]12)OC` (stereo not given in full), for which the TGI in the experiment with SW-620 colon, with OVCAR-3 ovarian, with A549 NSCLC, in the experiment on MDA-MB-231 breast, in the experiment on MOLT-4 leukemia and in the experiment on HL-60(TB) leukemia was more than 100 µM throughout. Further, the TGI in the experiment on RPMI-8226 leukemia, in the experiment with A498 renal, with HCT-15 colon, with EKVX NSCLC, in the experiment on SF-539 CNS and with BT-549 breast was more than 100 µM throughout. In addition, the TGI in the experiment with MALME-3M melanoma, with NCI-H522 lung, in the experiment on U251 CNS, in the experiment on HCC-2998 colon and in the experiment on UACC-257 melanoma was more than 100 µM each time.
In general, GI50 refers to the concentration that inhibits growth by half. Turning to `CSc1ccc(/C=C2\N=C(c3ccccc3)N(c3nc4ccc(Sc5ccccc5)cc4[nH]3)C2=O)cc1`, the TGI is 52.5 µM in the experiment with SW-620 colon; 35.9 µM in the experiment with OVCAR-3 ovarian; more than 97.2 µM in the experiment on A549 NSCLC; 55.5 µM in the experiment on MDA-MB-231 breast; 80.9 µM in the experiment on MOLT-4 leukemia; 49.4 µM with HL-60(TB) leukemia. Further, the TGI is 57.2 µM with RPMI-8226 leukemia; 62 µM in the experiment with A498 renal; more than 86.2 µM in the experiment on HCT-15 colon; more than 100 µM with EKVX NSCLC; 32.5 µM in the experiment on SF-539 CNS; 50.1 µM with BT-549 breast. Also, the TGI in the experiment on MALME-3M melanoma is more than 58.5 µM; with NCI-H522 lung it was 39.9 µM; in the experiment on U251 CNS, 41.3 µM; in the experiment on HCC-2998 colon, 38.2 µM; in the experiment on UACC-257 melanoma, 55.6 µM. In addition, the GI50 in the experiment on SF-539 CNS is 15 µM.
Take `S=c1[nH]c(=S)c2cc(Sc3ccc4[nH]c(=S)[nH]c(=S)c4c3)ccc2[nH]1`: the TGI in the experiment on SW-620 colon is more than 100 µM; in the experiment on OVCAR-3 ovarian, more than 100 µM; in the experiment on A549 NSCLC, more than 100 µM; with MDA-MB-231 breast it was more than 100 µM; in the experiment on MOLT-4 leukemia it was more than 100 µM; with HL-60(TB) leukemia, 62.8 µM. Moreover, the total growth inhibition concentration (TGI) in the experiment with RPMI-8226 leukemia was 54.9 µM; with A498 renal, 44 µM; in the experiment with HCT-15 colon, more than 100 µM; in the experiment with EKVX NSCLC it was more than 100 µM; in the experiment on SF-539 CNS it was 82.8 µM; in the experiment with BT-549 breast, 73.2 µM. Further, the TGI in the experiment with MALME-3M melanoma, with NCI-H522 lung, in the experiment on U251 CNS, in the experiment with HCC-2998 colon and in the experiment with UACC-257 melanoma was more than 100 µM in each case.
Consider `CN(C)Cc1cc(N=Nc2ccccc2)cc(CN(C)C)c1O`, for which the TGI in the experiment on SW-620 colon was more than 100 µM; in the experiment on OVCAR-3 ovarian, more than 100 µM; with A549 NSCLC it was more than 100 µM; with MDA-MB-231 breast, more than 100 µM; in the experiment with MOLT-4 leukemia, more than 100 µM; in the experiment on HL-60(TB) leukemia, 66.9 µM. In addition, the TGI in the experiment on RPMI-8226 leukemia, with A498 renal, in the experiment with HCT-15 colon, in the experiment on EKVX NSCLC, with SF-539 CNS and in the experiment on BT-549 breast was more than 100 µM in each case. In addition, the TGI with MALME-3M melanoma, in the experiment on NCI-H522 lung, with U251 CNS, in the experiment on HCC-2998 colon and in the experiment on UACC-257 melanoma was more than 100 µM throughout.
Regarding `Cc1ccc2c(n1)C(=O)c1ccccc1C2=O`, the TGI in the experiment with SW-620 colon is more than 95.4 µM; with OVCAR-3 ovarian it was 16.5 µM; with A549 NSCLC it was 69 µM; in the experiment with MDA-MB-231 breast, 75.5 µM; in the experiment on MOLT-4 leukemia it was more than 88.7 µM; in the experiment with HL-60(TB) leukemia, 45.7 µM. The TGI with RPMI-8226 leukemia is more than 95.8 µM; in the experiment on A498 renal it was more than 88.4 µM; in the experiment with HCT-15 colon, 82.9 µM; with EKVX NSCLC, 96.3 µM; in the experiment with SF-539 CNS, more than 87.1 µM; with BT-549 breast it was 89 µM. For the same compound, the TGI was 23.2 µM with MALME-3M melanoma; 52.4 µM in the experiment on NCI-H522 lung; 97.7 µM in the experiment with U251 CNS; more than 92.2 µM in the experiment on HCC-2998 colon; 37.9 µM in the experiment with UACC-257 melanoma.
Take `CSC1=C(c2ccc(Cl)cc2)SC(N2CCCCC2)N1c1ccc([N+](=O)[O-])cc1` (stereo not given): the TGI was more than 100 µM in the experiment with SW-620 colon; 58.1 µM with OVCAR-3 ovarian; more than 100 µM with A549 NSCLC; 77.1 µM in the experiment with MDA-MB-231 breast; 75.9 µM in the experiment on MOLT-4 leukemia; 97.4 µM in the experiment on HL-60(TB) leukemia. In addition, the TGI is 45.2 µM in the experiment on RPMI-8226 leukemia; 73.2 µM in the experiment on A498 renal; 89 µM in the experiment on HCT-15 colon; more than 100 µM in the experiment with EKVX NSCLC; 56.5 µM in the experiment with SF-539 CNS; more than 100 µM in the experiment on BT-549 breast. In addition, the concentration for total growth inhibition (TGI) with MALME-3M melanoma is more than 100 µM; with NCI-H522 lung, 63.3 µM; in the experiment on U251 CNS, 56.4 µM; with HCC-2998 colon, more than 100 µM; with UACC-257 melanoma, 85.8 µM.
Turning to `COCCOCCOC1=C(Cl)C(=O)c2c(O)ccc(O)c2C1=O`, the TGI with SW-620 colon is 0.562 µM; in the experiment on OVCAR-3 ovarian it was 3.19 µM; in the experiment with A549 NSCLC it was 25.5 µM; in the experiment with MDA-MB-231 breast it was 4.12 µM; with MOLT-4 leukemia, 2.37 µM; in the experiment on HL-60(TB) leukemia it was 1.89 µM. Moreover, the TGI came out at 3.07 µM in the experiment on RPMI-8226 leukemia; 13.9 µM in the experiment with A498 renal; 3.42 µM in the experiment on HCT-15 colon; 21.7 µM with EKVX NSCLC; 3.69 µM in the experiment on SF-539 CNS; 4.01 µM with BT-549 breast. Also, the TGI with MALME-3M melanoma is 3.34 µM; with NCI-H522 lung it was 2.99 µM; with U251 CNS it was 17.4 µM; in the experiment with HCC-2998 colon, 34 µM; in the experiment with UACC-257 melanoma, 4.04 µM.
Consider `N#CC1(C#N)NC(c2ccsc2)C(C#N)(C#N)NC1c1ccsc1` (stereo not given), for which the total growth inhibition concentration (TGI) with SW-620 colon, in the experiment on OVCAR-3 ovarian, with A549 NSCLC, in the experiment on MDA-MB-231 breast, in the experiment on MOLT-4 leukemia and with HL-60(TB) leukemia was more than 100 µM in each case. Moreover, the concentration for total growth inhibition (TGI) with RPMI-8226 leukemia, in the experiment with A498 renal, in the experiment on HCT-15 colon, with EKVX NSCLC, in the experiment on SF-539 CNS and in the experiment with BT-549 breast was more than 100 µM each time. The TGI with MALME-3M melanoma, with NCI-H522 lung, with U251 CNS, in the experiment on HCC-2998 colon and in the experiment with UACC-257 melanoma was more than 100 µM in each case.
Regarding `Cc1ccc(Nc2cc(=O)[nH]c(=S)[nH]2)cc1`, the TGI with SW-620 colon, in the experiment with OVCAR-3 ovarian, with A549 NSCLC, with MDA-MB-231 breast, in the experiment with MOLT-4 leukemia and in the experiment on HL-60(TB) leukemia was more than 100 µM in each case. Besides, the TGI in the experiment on RPMI-8226 leukemia, in the experiment with A498 renal, in the experiment on HCT-15 colon, in the experiment with EKVX NSCLC, in the experiment with SF-539 CNS and in the experiment with BT-549 breast was more than 100 µM in each case. For the same compound, the TGI with MALME-3M melanoma, in the experiment on NCI-H522 lung, with U251 CNS, in the experiment with HCC-2998 colon and with UACC-257 melanoma was more than 100 µM each time.
`CNC(=S)N/N=C/c1cccc(C)n1`: the concentration for total growth inhibition (TGI) in the experiment with SW-620 colon was more than 100 µM; in the experiment on OVCAR-3 ovarian it was more than 100 µM; in the experiment with A549 NSCLC it was more than 100 µM; in the experiment with MDA-MB-231 breast, more than 89 µM; with MOLT-4 leukemia it was more than 87 µM; in the experiment on HL-60(TB) leukemia, more than 75.9 µM. In addition, the TGI in the experiment with RPMI-8226 leukemia was more than 100 µM; in the experiment on A498 renal, more than 71 µM; with HCT-15 colon, more than 100 µM; in the experiment with EKVX NSCLC it was more than 100 µM; with SF-539 CNS it was 39.7 µM; with BT-549 breast it was 86.3 µM. Moreover, the TGI is more than 100 µM in the experiment on MALME-3M melanoma; more than 86.2 µM with NCI-H522 lung; more than 100 µM in the experiment on U251 CNS; more than 100 µM with HCC-2998 colon; more than 100 µM in the experiment with UACC-257 melanoma.
With `CN(C)c1ccc(/C=C/C=C(/C#N)c2ccccc2)cc1`, the concentration for total growth inhibition (TGI) in the experiment with SW-620 colon is 72.5 µM; in the experiment with OVCAR-3 ovarian, 28.5 µM; with A549 NSCLC, more than 100 µM; in the experiment with MDA-MB-231 breast, more than 93.8 µM; in the experiment with MOLT-4 leukemia, more than 55.7 µM; in the experiment on HL-60(TB) leukemia it was 33 µM. Also, the TGI in the experiment on RPMI-8226 leukemia was more than 95.3 µM; with A498 renal, 98.5 µM; in the experiment on HCT-15 colon it was more than 100 µM; in the experiment with EKVX NSCLC, more than 100 µM; in the experiment on SF-539 CNS, 64.7 µM; in the experiment on BT-549 breast, more than 100 µM. Also, the TGI is more than 100 µM in the experiment on MALME-3M melanoma; more than 65.7 µM in the experiment with NCI-H522 lung; 55.5 µM in the experiment on U251 CNS; more than 85.3 µM in the experiment with HCC-2998 colon; more than 100 µM in the experiment on UACC-257 melanoma.
`COC(=O)/N=[N+](\[O-])C(c1ccc(OC)cc1)C1CCCCC1` (stereo not given): the TGI in the experiment with SW-620 colon stood at 24.3 µM; with OVCAR-3 ovarian, 33.2 µM; in the experiment with A549 NSCLC, 34.9 µM; in the experiment with MDA-MB-231 breast, 32.2 µM; in the experiment with MOLT-4 leukemia it was 31.6 µM; in the experiment with HL-60(TB) leukemia it was 2.78 µM. Moreover, the TGI in the experiment with RPMI-8226 leukemia was 4.55 µM; in the experiment on A498 renal, 25.3 µM; in the experiment on HCT-15 colon it was 23.5 µM; in the experiment on EKVX NSCLC it was more than 44.1 µM; with SF-539 CNS, more than 48.3 µM; in the experiment on BT-549 breast, 43 µM. Also, the TGI is 11.8 µM in the experiment on MALME-3M melanoma; 5.1 µM in the experiment with NCI-H522 lung; 20.1 µM in the experiment on U251 CNS; 16.1 µM in the experiment with HCC-2998 colon; 25.3 µM in the experiment on UACC-257 melanoma.

The record behind these values is PubChem BioAssay (NCI).
